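Cells were grown in 96-well plates and exposed to each compound for 48 hours at five concentrations; endpoints were interpolated linearly between bracketing concentrations, or set to the highest concentration if not reached. The concentration for 50% growth inhibition is given as GI50. TGI denotes the concentration required for complete inhibition of growth.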
Legend:
Test in all cases: inhibition of tumour cell growth, NCI panel, 48 h
[1] = system: SK-MEL-2 melanoma
[2] = system: DU-145 prostate
[3] = system: LOX IMVI melanoma
[4] = system: MDA-MB-231 breast
[5] = system: HCT-15 colon
[6] = system: M14 melanoma
[7] = system: MOLT-4 leukemia
[8] = system: MDA-MB-435
[9] = system: SF-539 CNS
[10] = system: SK-MEL-28 melanoma
[11] = system: A498 renal
[12] = system: SF-295 CNS
[13] = system: CAKI-1 renal
[14] = system: SF-268 CNS
[15] = system: RPMI-8226 leukemia
[16] = system: NCI-H522 lung
[17] = system: NCI-H460 lung
[18] = system: HCC-2998 colon
[19] = system: MCF7 breast
[20] = system: CCRF-CEM leukemia
[21] = system: HOP-92 NSCLC
[22] = system: NCI/ADR-RES ovarian
[23] = system: KM12 colon
[24] = system: BT-549 breast
[25] = system: SN12C renal
[26] = system: T-47D breast
[27] = system: K-562 leukemia
[28] = system: PC-3 prostate
[29] = system: A549 NSCLC
[30] = system: SNB-19 CNS
[31] = system: NCI-H23 lung
[32] = system: COLO 205 colon
[33] = system: OVCAR-5 ovarian
[34] = system: 786-0 renal
[35] = system: OVCAR-3 ovarian
[36] = system: RXF 393 renal
[37] = system: ACHN renal
[38] = system: EKVX NSCLC
[39] = system: OVCAR-8 ovarian
[40] = system: TK-10 renal
[41] = system: HCT-116 colon
[42] = system: HOP-62 NSCLC
[43] = system: U251 CNS
[44] = system: HS 578T breast
[45] = system: UACC-257 melanoma
[46] = system: SW-620 colon
[47] = system: SK-MEL-5 melanoma
[48] = system: SNB-75 CNS
[49] = system: NCI-H226 lung
[50] = system: HL-60(TB) leukemia
[51] = system: UACC-62 melanoma
[52] = system: HT29 colon
[53] = system: SK-OV-3 ovarian
[54] = system: UO-31 renal
[55] = system: IGROV1 ovarian
[56] = system: OVCAR-4 ovarian

What does the source list for CCN1C2=C(SC(=S)C1=C1SC(C(=O)OC)=C(C(=O)OC)S1)SC(=Nc1ccc(OC)cc1)C2=O?
GI50 [1]: 2.09 µM; TGI [1]: 5.29 µM; GI50 [2]: 1.73 µM; TGI [2]: 3.43 µM; GI50 [3]: 1.69 µM; TGI [3]: 3.43 µM; GI50 [4]: 3.39 µM; TGI [4]: > 100 µM; GI50 [5]: 3.02 µM; TGI [5]: 33.3 µM; GI50 [6]: 1.75 µM; TGI [6]: 3.75 µM; GI50 [7]: 1.54 µM; TGI [7]: 5.29 µM; GI50 [8]: 2.21 µM; TGI [8]: 5.55 µM; GI50 [9]: 1.86 µM; TGI [9]: 3.77 µM; GI50 [10]: 1.69 µM; TGI [10]: 3.25 µM; GI50 [11]: 2.03 µM; TGI [11]: 5.37 µM; GI50 [12]: 1.31 µM; TGI [12]: 3.55 µM; GI50 [13]: 1.81 µM; TGI [13]: 3.9 µM; GI50 [14]: 2.56 µM; TGI [14]: 7.64 µM; GI50 [15]: 2.38 µM; TGI [15]: 9.19 µM; GI50 [16]: 1.59 µM; TGI [16]: 3.96 µM; GI50 [17]: 2.02 µM; TGI [17]: 4.65 µM; GI50 [18]: 1.95 µM; TGI [18]: 3.66 µM; GI50 [19]: 1.9 µM; TGI [19]: 5.75 µM; GI50 [20]: 2.09 µM; TGI [20]: > 100 µM; GI50 [21]: 2.97 µM; TGI [21]: 26.1 µM; GI50 [22]: 3.05 µM; TGI [22]: 7.19 µM; GI50 [23]: 1.67 µM; TGI [23]: 3.13 µM; GI50 [24]: 1.71 µM; TGI [24]: 4.06 µM; GI50 [25]: 2.76 µM; TGI [25]: > 100 µM; GI50 [26]: 2.16 µM; TGI [26]: 5.88 µM; GI50 [27]: 2.36 µM; TGI [27]: > 100 µM; GI50 [28]: 3.01 µM; TGI [28]: > 100 µM; GI50 [29]: 13.1 µM; TGI [29]: 62.5 µM; GI50 [30]: 2.89 µM; TGI [30]: 10.8 µM; GI50 [31]: 2.27 µM; TGI [31]: 4.17 µM; GI50 [32]: 1.92 µM; TGI [32]: 5.74 µM; GI50 [33]: 2.37 µM; TGI [33]: 6.19 µM; GI50 [34]: 1.8 µM; TGI [34]: 3.34 µM; GI50 [35]: 1.79 µM; TGI [35]: 3.39 µM; GI50 [36]: 1.88 µM; TGI [36]: 3.98 µM; GI50 [37]: 1.82 µM; TGI [37]: 3.58 µM; GI50 [38]: 3.62 µM; TGI [38]: 21.3 µM; GI50 [39]: 2.82 µM; TGI [39]: > 100 µM; GI50 [40]: 5.08 µM; TGI [40]: > 100 µM; GI50 [41]: 1.59 µM; TGI [41]: 3.11 µM; GI50 [42]: 1.95 µM; TGI [42]: 3.8 µM; GI50 [43]: 1.65 µM; TGI [43]: 3.27 µM; GI50 [44]: 3.93 µM; TGI [44]: > 100 µM; GI50 [45]: 1.76 µM; TGI [45]: 3.87 µM; GI50 [46]: 1.77 µM; TGI [46]: 3.7 µM; GI50 [47]: 1.63 µM; TGI [47]: 3.08 µM; GI50 [48]: 1.1 µM; TGI [48]: 2.53 µM; GI50 [49]: 2.25 µM; TGI [49]: 5.26 µM; GI50 [50]: 1.79 µM; TGI [50]: 6.83 µM; GI50 [51]: 1.73 µM; TGI [51]: 3.84 µM

For NC1CC(=O)c2ccccc21 (stereo unspecified), which TGI [1] is on record?
The TGI was greater than 100 µM.

And the TGI [2]?
The TGI was greater than 100 µM.

What about the TGI [3] of the same compound?
Its TGI is greater than 100 µM.

And the TGI [4]?
Its TGI is greater than 100 µM.

What about the TGI [5] of the same compound?
The TGI was greater than 100 µM.

And the TGI [6]?
Its TGI is greater than 100 µM.

And the TGI [7]?
The TGI was greater than 100 µM.

And the TGI [8]?
The TGI was greater than 100 µM.

What about the TGI [9] of the same compound?
Its TGI is greater than 100 µM.

What about the TGI [10] of the same compound?
The TGI was greater than 100 µM.

What about the TGI [11] of the same compound?
Its TGI is greater than 100 µM.

What about the TGI [12] of the same compound?
The TGI was greater than 100 µM.

What about the TGI [52] of the same compound?
Its TGI is greater than 100 µM.

What about the TGI [13] of the same compound?
The TGI was greater than 100 µM.

What about the TGI [53] of the same compound?
Its TGI is greater than 100 µM.

And the TGI [14]?
Its TGI is greater than 100 µM.

And the TGI [15]?
The TGI was greater than 100 µM.

And the TGI [16]?
The TGI was greater than 100 µM.

What about the TGI [18] of the same compound?
The TGI was greater than 100 µM.

And the TGI [19]?
Its TGI is greater than 100 µM.

And the TGI [20]?
The TGI was greater than 100 µM.

What about the TGI [21] of the same compound?
The TGI was greater than 100 µM.

What about the TGI [22] of the same compound?
The TGI was greater than 100 µM.

And the TGI [54]?
The TGI was greater than 100 µM.

And the TGI [23]?
Its TGI is greater than 100 µM.

What about the TGI [24] of the same compound?
The TGI was greater than 100 µM.

And the TGI [25]?
The TGI was greater than 100 µM.

What about the TGI [26] of the same compound?
Its TGI is greater than 100 µM.

And the TGI [27]?
Its TGI is greater than 100 µM.

What about the TGI [28] of the same compound?
Its TGI is greater than 100 µM.

What about the TGI [29] of the same compound?
The TGI was greater than 100 µM.

And the TGI [30]?
The TGI was greater than 100 µM.

And the TGI [55]?
Its TGI is greater than 100 µM.

What about the TGI [31] of the same compound?
The TGI was greater than 100 µM.

What about the TGI [32] of the same compound?
The TGI was greater than 100 µM.

And the TGI [33]?
The TGI was greater than 100 µM.

What about the TGI [34] of the same compound?
The TGI was greater than 100 µM.

And the TGI [35]?
The TGI was greater than 100 µM.

And the TGI [36]?
The TGI was greater than 100 µM.

What about the TGI [37] of the same compound?
Its TGI is greater than 100 µM.

What about the TGI [38] of the same compound?
The TGI was greater than 100 µM.

What about the TGI [39] of the same compound?
Its TGI is greater than 100 µM.

What about the TGI [40] of the same compound?
Its TGI is greater than 100 µM.

What about the TGI [41] of the same compound?
Its TGI is greater than 100 µM.

And the TGI [42]?
Its TGI is greater than 100 µM.

And the TGI [43]?
Its TGI is greater than 100 µM.

What about the TGI [44] of the same compound?
Its TGI is greater than 100 µM.

What about the TGI [45] of the same compound?
Its TGI is greater than 100 µM.

What about the TGI [46] of the same compound?
Its TGI is greater than 100 µM.

And the TGI [47]?
Its TGI is greater than 100 µM.

What about the TGI [48] of the same compound?
The TGI was greater than 100 µM.

And the TGI [49]?
The TGI was greater than 100 µM.

And the TGI [51]?
Its TGI is greater than 100 µM.

What about the TGI [56] of the same compound?
Its TGI is greater than 100 µM.

From PubChem BioAssay (NCI)
